Residues, ends and D or L forms follow the SMILES beside them. *: point of attachment. Cbz = O=C(OCc1ccccc1)*
What was measured:
GPER [1] = biological target: T1, GPER (Homo sapiens, UniProt Q99527); experiment: Immunostaining of endogenous receptors in MCF-7 cells; conditions: MCF-7, 1 hour
ERα = biological target: T2, ERα (Homo sapiens, UniProt P03372); experiment: as above; conditions: MCF-7, 1 hour
T2 sequence (P03372 1-595): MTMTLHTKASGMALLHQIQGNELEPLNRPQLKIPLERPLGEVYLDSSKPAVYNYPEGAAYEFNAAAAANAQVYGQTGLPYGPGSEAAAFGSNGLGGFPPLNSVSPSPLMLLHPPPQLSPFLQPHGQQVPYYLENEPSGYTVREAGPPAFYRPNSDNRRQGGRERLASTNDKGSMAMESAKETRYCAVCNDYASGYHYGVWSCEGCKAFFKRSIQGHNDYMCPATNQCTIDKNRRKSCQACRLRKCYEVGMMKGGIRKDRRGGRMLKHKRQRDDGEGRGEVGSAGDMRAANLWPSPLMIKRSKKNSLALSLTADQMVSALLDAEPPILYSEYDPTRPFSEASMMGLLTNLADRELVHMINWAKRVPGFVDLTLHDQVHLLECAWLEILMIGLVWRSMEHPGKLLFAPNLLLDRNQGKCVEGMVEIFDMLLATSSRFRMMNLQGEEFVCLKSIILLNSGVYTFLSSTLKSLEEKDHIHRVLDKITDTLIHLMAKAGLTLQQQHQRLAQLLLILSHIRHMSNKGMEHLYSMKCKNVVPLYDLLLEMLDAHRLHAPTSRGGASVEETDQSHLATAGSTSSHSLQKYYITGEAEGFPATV

GPER [2] = biological target: T1, GPER; experiment: Competitive binding assay in intact SKBR3 cells with E2-FITC as fluoro-tracer (flow cytometry); set-up: endogenous in cells; host or cells: SKBR3 human breast carcinoma cells (ATCC); conditions: concentrations as high as 10 mM
HiBiT-ERα = biological target: T3, HiBiT-ERα (Homo sapiens, UniProt P03372); experiment: Nano-BiT binary luminescence complementation, transfected HEK-293 cells, total receptor; format: cell-based; conditions: for effect on UI-EP001 / UI-EP002 degradation of HiBiT-ERα: 100 µM UI-EP001 or UI-EP002, 1 hour, MG132 10 µM, chloroquine 100 µM, E2 or aldosterone 100 nM-100 µM
T3 sequence (P03372 1-595): T2 sequence (P03372 1-595)
Description: FIG. 26. […] HEK-293 cells (ERα^-, GPER^-) were transiently transfected with 50 ng HiBiT-GPER or HiBiT-ER plus pcDNA3.1(+) zeo carrier plasmid. […] Results shown represent the mean ± S.E. of three independent experiments.
(§1) FIG. 28. […] Total receptor was then measured by binary luminescence complementation in detergent-permeabilized cells. […] Total receptor was then quantified by binary luminescence complementation. Representative luminescence data and mean values and SDs derived from three independent experiments are shown.
(§2) Transient transfections and binary Nano-Bit ™ luminescence assays. Total HiBiT-tagged GPER or ER estrogen receptors were detected in detergent-permeabilized cells by binary luminescence complementation with recombinant LgBit and substrate using the Nano-Glo HiBiT Extracellular Detection system kit (Promega Corporation, Madison, Wl). In brief, HEK293 cells (0.75 × 10^6) were seeded in 35 mm tissue culture dishes and 24 hours later were transiently transfected with 50 ng of HiBiT-GPER or HiBiT-ERa and 950 ng of pcDNA3.1(+) zeo carrier plasmid using Lipofectamine 2000 (Invitrogen, Carlsbad, CA). The next day transfected cells were harvested by trypsinization and seeded at a density of 10^4 cells/well in 96-well poly-L-lysine-coated Greiner white-bottomed microplates. On the following day, cell culture media was aspirated and replaced with 100 µL of serum-free PRF-DF12 containing E2-PROTAC, partial-PROTAC, or vehicle at various concentrations and for indicated time intervals at 37° C. […] Following treatment, total HiBiT-tagged receptor was measured in cells which were permeabilized in 0.05% Triton X-100 using HiBiT complementation reagent consisting of LgBiT protein and Nano-Gio® HiBiT substrate. Luminescence was measured using the Infinite 200 PRO multimode microplate reader from Tecan (Raleigh, NC) and reported as Relative Luminescent Units (RLU). All samples were measured in triplicate and expressed as the mean value plus or minus standard deviation.

HCC1806 cells = experiment: Cell cycle analysis, propidium iodide, flow cytometry; format: cell-based, human; conditions: HCC1806, 10 µM, 24 hours
Description: (§3) FIG. 30. E2-PROTACs promote estrogen receptor-dependent G2/M arrest. E2-PROTAC induced G2/M arrest in human breast cancer cell lines expressing membrane and/or intracellular estrogen receptors. […] Fixed cells were permeabilized and dyed with propidium iodide (PI). Cell cycle data were acquired on a flow cytometer and analyzed using Flow-Jo software. Data are expressed as mean ± SEM (n=3). The percentage of cells in each phase were plotted using Prism 8.0.
(§4) Cell cycle analysis. […] Following treatment, cells were harvested by trypsinization and washed twice in ice-cold PBS. Cells were then fixed in 70% ethanol at 4° C. for 30 minutes. Fixed cells were pelleted by centrifugation at 230 g for 5 minutes and the cell pellet was incubated in Krishan’s solution (3.8 mM sodium citrate (Fisher Scientific), 0.014 mM propidium iodide (AnaSpec, Fermont, Ca), 1% NP-40 (Sigma) and 2.0 mg/mL RNase A (Fisher Scientific)) for 30 minutes at 37° C. Cells were then centrifuged and washed in PBS prior to analysis using a FacScallibur flow cytometer. The data from flow cytometry were subjected to further analysis by CellQuest software version 3.3. DNA histograms generated indicate the fractions of the cell population in the sub-G1, G0-G1, S, or G2/M phase of the cell cycle.
(§5) To investigate the biological effect associated with decreased cell viability, cell cycle analysis was performed on the same four cell lines using propidium iodide staining and measured by flow cytometry 24 hours after treatment of cells with 10 µM E2-PROTAC or partial PROTAC (FIG. 30).

SKBR3 cells = experiment: as above; format: cell-based, human; conditions: SKBR3, 10 µM, 24 hours
Description: as §3, §4, §5

MCF-7 cells = experiment: as above; format: cell-based, human; conditions: MCF-7, 10 µM, 24 hours
Description: as §3, §4, §5

ERβ = ERβ (Homo sapiens, UniProt Q92731); experiment: Immunostaining of endogenous receptors in MCF-7 cells; conditions: MCF-7, 1 hour
ERβ, sequence (Q92731 whole entry): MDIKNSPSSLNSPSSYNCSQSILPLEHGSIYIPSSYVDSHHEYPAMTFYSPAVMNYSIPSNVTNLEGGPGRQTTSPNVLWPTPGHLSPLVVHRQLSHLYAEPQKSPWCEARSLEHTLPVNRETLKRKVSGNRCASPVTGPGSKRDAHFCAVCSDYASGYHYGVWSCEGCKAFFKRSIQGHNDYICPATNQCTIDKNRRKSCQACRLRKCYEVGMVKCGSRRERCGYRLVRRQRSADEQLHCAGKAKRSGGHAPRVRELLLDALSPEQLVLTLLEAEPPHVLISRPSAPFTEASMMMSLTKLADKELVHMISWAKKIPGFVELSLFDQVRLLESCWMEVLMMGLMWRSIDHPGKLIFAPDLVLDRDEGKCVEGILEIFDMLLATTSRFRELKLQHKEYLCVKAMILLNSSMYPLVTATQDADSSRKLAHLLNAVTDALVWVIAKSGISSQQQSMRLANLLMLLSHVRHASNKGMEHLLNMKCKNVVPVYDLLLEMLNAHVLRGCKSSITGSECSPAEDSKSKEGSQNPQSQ

HiBiT-GPER = HiBiT-GPER (Homo sapiens, UniProt Q99527); experiment: Nano-BiT binary luminescence complementation, transfected HEK-293 cells, total receptor; format: cell-based; conditions: for effect on UI-EP001 / UI-EP002 degradation of HiBiT-GPER: 100 µM UI-EP001 or UI-EP002, 1 hour, MG132 10 µM, chloroquine 100 µM, E2 or aldosterone 100 nM-100 µM
HiBiT-GPER, sequence (Q99527 whole entry): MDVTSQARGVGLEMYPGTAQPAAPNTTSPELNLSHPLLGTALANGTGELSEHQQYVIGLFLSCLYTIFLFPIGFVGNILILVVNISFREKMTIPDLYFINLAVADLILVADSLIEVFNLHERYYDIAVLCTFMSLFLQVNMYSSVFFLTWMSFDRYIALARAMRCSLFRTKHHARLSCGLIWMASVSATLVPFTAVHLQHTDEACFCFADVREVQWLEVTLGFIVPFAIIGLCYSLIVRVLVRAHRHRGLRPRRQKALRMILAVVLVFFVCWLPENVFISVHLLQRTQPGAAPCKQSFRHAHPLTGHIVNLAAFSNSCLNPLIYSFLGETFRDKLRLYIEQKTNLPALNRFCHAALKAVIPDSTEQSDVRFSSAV
Description: FIG. 26. […] HEK-293 cells (ERα^-, GPER^-) were transiently transfected with 50 ng HiBiT-GPER or HiBiT-ER plus pcDNA3.1(+) zeo carrier plasmid. […] (C) Histogram depicting total HiBiT-GPER and HiBiT-ER following a 1-hour treatment at […] drug or control. […] Results shown represent the mean ± S.E. of three independent experiments.
as §1, §2

[3] = biological target: T4, recombinant HA-tagged GPER (Homo sapiens, UniProt Q99527); experiment: HA immunoblot of lysates of HEK293 cells stably expressing HA-tagged GPER; format: cell-based; conditions: various concentrations, 16 hr
T4 construct: expressed in transfected cells
T4 sequence (Q99527 whole entry): as above
Description: FIG. 38. […] HEK293 cells stably expressing recombinant HA-tagged GPER were treated with various concentrations of CIMBA-PROTAC-001 or partial PROTAC for 16 hr and then lysed in detergent. Equivalent amounts of protein lysate were resolved in SDS-polyacrylamide gels and then electrotransferred onto PVDF […] membranes. Membranes were probed with rabbit HA antibodies, top. HA- antibodies were stripped from the membrane at low pH and the membrane was then probed with […] transferrin receptor (TFNR) antibodies as a specificity and loading control.

ERs (ERa and ERb) = experiment: Fluorescence polarization competitive binding with E2-FITC in cytosolic fractions from MCF-7 cells; set-up: species or system human
Description: ER binding was measured using cytosolic fractions prepared from MCF-7 cells by fluorescence polarization. MCF-7 (10^6 cells) were detached in EDTA, cell homogenates were prepared using a Dounce homogenizer and subcellular fractions were isolated by differential centrifugation as previously described (Filardo et al, 2002). The protein concentration of each fraction was determined by bichinchoninic acid (BCA) assay (Pierce ™ BCA protein assay kit, Thermo Fisher). For saturation binding assay of the probe, different concentrations of cytosolic fraction were diluted in assay buffer (10 mM Tris-HCl, pH 7.4; 50 mM KCl, 10% glycerol, 0.1 mM dithiothreitol (DTT), 1 ug/mL BGG, 10 nM protease inhibitor cocktail (Roche) to a final volume of 200 uL containing 10 nM Ez-FITC. The mixture was incubated at ambient temperature for 1 hour and interaction of the probe with cytosolic protein was determined by fluorescence polarization (FP). For competitive binding assay, an aliquot of cytosolic fraction and E2-FITC (10 nM final concentration) was mixed and incubated at 4° C. for 1 hour. Then different concentrations of drugs and controls were added to the mixture. The mixture was incubated for an additional hour and then subjected to FP. All samples were measured in triplicate. Negative controls (only cytosolic fraction or only E2-FITC) and positive control (E2-FITC and cytosolic fraction at 100% binding without treatment) were included. Relative binding affinities were expressed as the percentage of FP recorded from treated wells compared to the positive control. FP values in millipolarization units (mP) were measured at ex/em wavelength of 485 nm/530 nm respectively using the Spectra Max plus 384 Microplate Spectrophotometer (Molecular Devices, Sunnyvale, CA) in 96-well, black, flat-bottom microplates (Greiner Bio-One North America, Inc., Monroe, NC). Kd values of the probe were determined by nonlinear regression fitting of the saturation curves, while IC50 values of treatment were determined by nonlinear regression fitting of the competition curves.
In contrast to GPER, ERa and ERb are intracellular receptors that are concentrated in the cytoplasm and in the nucleus. […] A saturation analysis was performed using 10 nM E2-FITC and increasing concentrations of cytosolic protein (FIG. 25D).

GPER [4] = biological target: T1, GPER; conditions: Filardo et al., 2007; cited from earlier work
GPER [5] = biological target: T1, GPER; conditions: Filardo et al., 2007; cited from earlier work; remark: listed apart in the source
[6] = increasing doses, 1 hour, partial PROTAC 100 µM

T1 sequence (Q99527 whole entry): as above

Cc1ncsc1-c1ccc(CNC(=O)C2CC(O)CN2C(=O)C(NC(=O)COCCOCCOCCOCC(=O)O)C(C)(C)C)cc1 (stereo not drawn) [Partial PROTAC, reference compound]
intracellular GPER expression (GPER [1]): did not impact
nuclear ERα expression (ERα): did not impact
competition for E2-FITC binding (GPER [2]): unable to compete for E2-FITC binding
change of HiBiT-ERα (HiBiT-ERα; [6]): did not show any significant decrease
cell cycle distribution (HCC1806 cells): much less significant shift
cell cycle distribution (SKBR3 cells): much less significant shift
cell cycle distribution (MCF-7 cells): much less significant shift
nuclear ERβ expression (ERβ): did not impact
receptor present after treatment (HiBiT-GPER; 100 µM, 8 hrs, recombinant receptor, GPER or ER not specified): 83%
change of HiBiT-GPER (HiBiT-GPER; [6]): did not show any significant decrease

CCN(CC)CCCC(C)Nc1ccnc2cc(Cl)ccc12 (stereo not drawn) [chloroquine, chloroquine diphosphate]
effect on UI-EP001 / UI-EP002 degradation of HiBiT-GPER (HiBiT-GPER): had no such effect

COc1ccc(CNc2ccc(C(C)C)cc2N2CCN(C(=O)COCCOCCOCCOCC(=O)NC(C(=O)N3CC(O)CC3C(=O)NCc3ccc(-c4scnc4C)cc3)C(C)(C)C)CC2)cc1 (stereo not drawn) [CIMBA-PROTAC-001]
degradation of recombinant GPER [3]: degrades recombinant GPER

C[C@]12CC[C@@H]3c4ccc(O)cc4C[C@@H](CCCCCCCCC[S+]([O-])CCCC(F)(F)C(F)(F)F)[C@H]3[C@@H]1CC[C@@H]2O (stereo partly drawn) [Fulvestrant]
concentration at which it functions as a GPER agonist (GPER [4]): 500 nM
relative binding activity (GPER [5]): 5%

CC(C)C[C@@H](C=O)NC(=O)[C@H](CC(C)C)NC(=O)[C@H](CC(C)C)NC(=O)OCc1ccccc1 [MG132] (Cbz-Leu-Leu-Leu-aldehyde)
effect on UI-EP001 / UI-EP002 degradation of HiBiT-ERα (HiBiT-ERα): reversed
effect on UI-EP001 / UI-EP002 degradation of HiBiT-GPER (HiBiT-GPER): reversed

C[C@]12CCC(=O)C=C1CC[C@@H]1[C@@H]2[C@@H](O)C[C@]2(C=O)[C@@H](C(=O)CO)CC[C@@H]12 [aldosterone]
effect on UI-EP001 / UI-EP002 degradation of HiBiT-ERα (HiBiT-ERα): not aldosterone was capable of blocking
effect on UI-EP001 / UI-EP002 degradation of HiBiT-GPER (HiBiT-GPER): not aldosterone was capable of blocking
